Measurements: patent publication US8367710B2, “Bicyclo-substituted pyrazolon azo derivatives, preparation process and pharmaceutical use thereof” (Jiangsu Hengrui Medicine Co. Ltd., priority 2008, dated 2013)
Values belong to the compound of their own block, whether it stands above or below them.

What was measured:
[1] = molecular target: T1, human TPO receptor (Homo sapiens, UniProt P40238); test: pro-proliferation effect on BAF3-TPOR cell (CCK-8); assay type: cell-based, mouse; details: BAF3-TPOR cells, proliferation relative to rhTPO positive control
T1 sequence (P40238 26-635): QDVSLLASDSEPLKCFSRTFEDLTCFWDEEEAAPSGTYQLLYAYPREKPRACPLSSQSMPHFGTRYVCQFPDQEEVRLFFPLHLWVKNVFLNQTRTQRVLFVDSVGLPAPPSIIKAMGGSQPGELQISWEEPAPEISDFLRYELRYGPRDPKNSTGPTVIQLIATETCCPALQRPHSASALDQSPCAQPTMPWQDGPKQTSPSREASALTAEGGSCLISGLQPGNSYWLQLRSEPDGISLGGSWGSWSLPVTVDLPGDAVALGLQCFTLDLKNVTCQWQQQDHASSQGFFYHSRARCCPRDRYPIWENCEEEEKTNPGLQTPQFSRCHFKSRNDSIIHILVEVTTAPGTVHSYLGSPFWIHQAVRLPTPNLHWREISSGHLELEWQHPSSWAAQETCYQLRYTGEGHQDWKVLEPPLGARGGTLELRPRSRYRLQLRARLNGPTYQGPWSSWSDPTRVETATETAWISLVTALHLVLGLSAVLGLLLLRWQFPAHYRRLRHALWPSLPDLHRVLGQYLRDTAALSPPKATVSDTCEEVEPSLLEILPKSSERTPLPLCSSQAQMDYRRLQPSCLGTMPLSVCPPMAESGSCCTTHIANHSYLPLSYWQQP
Procedure: The sequence of primers which contains multi-sites mutation was designed as follows: […]
The E. coli DH5α competent cell was transformed with mutated plasmid, and positive colonies were picked up through ampicillin selection.
(2) BAF3-TPOR stable transfected cell line: the following method was used to construct the BaF3 cell which stably over-expressed functional human TPO receptor. […] The stable transfected cells BAF3-TPOR were selected with G418 (Gibco, US), then incubated with RPMI1640 medium plus 10% FBS (Gibco, US), […] G418, 5 ng/mL, rmIL-3 (Chemicon, US).
(1) Washing cells by centrifugation: a suitable amount of cell suspension was centrifuged at 1000 rpm for 5 minutes, and the supernatant was discarded. 10 mL of cell culture media without containing IL-3 was added. Then the resulting cell suspension was centrifuged at 1000 rpm for 5 minutes, and the supernatant was discarded.
(2) 1 mL of cell culture media without containing IL-3 was added to beat upon them to equality, and the number of a suitable amount of cell suspension was counted after dilution.
(3) According to the result of the cell counting, a cell suspension in a concentration of 100,000 cell/mL was prepared.
(4) 100 μL of cell suspension was transferred to each well of 96-well culture plate, and there were 3 parallel wells, that is, there were a blank control group (B), a negative control group (N), a positive control group of TPO (P) and a test compound group (S).
(5) The test compound was dissolved in DMSO to prepare a 10 mM stock solution, and then the solution was diluted with RPMI 1640 medium into a series of test samples at different concentration: 30 μM, 10 μM, 3 μM, 1 μM, 0.3 μM, 0.1 μM, 0.03 μM, 0.01 μM, 0.003 μM, 0.001 μM.
(6) 10 μL of test compound solution was transferred to each well respectively; 1 μL of rhTPO (10 μg/mL) was added to positive control well.
(7) The plates were incubated in an incubator at 5% CO2 and 37° C. for 24 hours.
(9) OD value was detected at 450 nm by VICTOR3 (Perkin Elmer 1420-120) plate reader.
(1) The proliferation rate was calculated as follows: Rate=[(S−B)/(P−B)]*100%
S: OD value of wells which contains test compound.
B: OD value of blank control wells
P: OD value of positive control wells
(2) The EC50 value was calculated by Origin 7.0 software.

[2] = Pharmacokinetics assay in rats after intragastric administration; assay type: in vivo; details: both sexes, Sprague-Dawley, rat, plasma, po, SD rats, 5 mg/Kg; for Vd/F: read-out: Apparent Distribution Volume Vz/F; for CL/F: read-out: Clearance CL/F (converted); for AUC: read-out: Curve Area AUC; for half-life: read-out: Half-Life t½ (converted); for MRT: read-out: Mean Residence Time MRT; for Cmax: read-out: Plasma Conc. Cmax
Procedure: Test Example 1: Pharmacokinetics assay of the compounds of the present disclosure
The pharmacokinetics of the compounds of the present disclosure was studied and evaluated in rats.
The test compound was diluted with 1% sodium carboxymethyl cellulose to 0.5 mg/mL (calculated as the free acid form) of suspension before use.
24 healthy adult SD rats, male and female in half, were divided into […]. After an overnight fast, the rats were administered intragastrically at a dose of 5.0 mg/kg (calculated as the free acid form), at a volume of 10 mL/kg.
24 healthy adult SD rats, male and female in half, were administered intragastrically at a dose of 5.0 mg/kg after an overnight fast. Blood samples (0.2 mL) were taken from eye socket at pre administration and at 0.5, 1.0, 2.0, 3.0, 4.0, 5.0, 6.0, 8.0, 11.0, 14.0, 24.0, 36.0 and 48.0 hours post administration, which were stored in heparinized tubes and centrifuged for 10 minutes at 3,500 rpm. The plasma samples were stored at −20° C. until analysis.
50 μL of rat plasma, obtained at various time points after administration, 20 μL of internal standard solution and 20 μL of a solvent mixture of methanol and water (80:20, v/v) were mixed well, and then 150 μL of methanol was added to result in protein precipitation. Then the mixture was mixed for 1 minute using a vortexer and centrifuged for 10 minutes at 13,000 rpm. 20 μL of the supernatant was analyzed by LC/MS/MS.
50 μL of blank plasma was spiked with a series of standard solutions to produce final concentrations of 1.0, 5.0, 25.0, 50.0, 100.0, 250.0, 500.0 ng/mL, followed by addition of 20 μL of internal standard solution, which was treated according to plasma sample pretreatment protocol. A typical calibration curve equation was obtained with plasma concentration as the abscissa and the chromatographic peak area ratio of sample to internal standard as the ordinate, using weighted least squares method (w=1/x^2) for linear regression.
The compartmental model of pharmacokinetics was fitted for the test compounds and the major pharmacokinetic parameters were calculated in which Cmax and tmax were the actually measured values.

Compound: CC1=NN(c2ccc(C)c(C)c2)C(=O)/C1=N\Nc1cccc(-c2cccc(C(=O)O)c2)c1O [Eltrombopag, eltrombopag, reference compound]
EC50 [1]: 299 nM
Vd/F [2]: 1.53 ± 0.26 L/kg
CL/F [2]: 3 mL/min/kg
AUC [2]: 29000 ± 3820 ng·h/mL
half-life [2]: 6.11 ± 1.04 h
MRT [2]: 4.63 ± 1.03 h
Cmax [2]: 8470 ± 950 ng/mL

Compound: CC1=NN(c2ccc3c(c2)CC(C)(C)C3)C(=O)/C1=N\Nc1cccc(-c2ccc(C(=O)O)o2)c1O [Example 45, 5-(3-{N′-[1-(2,2-Dimethyl-indan-5-yl)-3-methyl-5-oxo-1,5-dihydro-pyrazol-4-ylidene]-hydrazino}-2-hydroxy-phenyl)-furan-2-carboxylic acid]
EC50 [1]: 130 nM

Compound: CC1=NN(c2ccc3c(c2)CCCC3)C(=O)/C1=N\Nc1cccc(-c2csc(C(=O)O)c2)c1O [Example 51, 4-(2-Hydroxy-3-{N′-[3-methyl-5-oxo-1-(5,6,7,8-tetrahydro-naphthalen-2-yl)-1,5-dihydro-pyrazol-4-ylidene]-hydrazino}-phenyl)-thiophene-2-carboxylic acid]
EC50 [1]: 55 nM

Compound: COC(=O)c1ccc(-c2cccc(N/N=C3\C(=O)N(c4ccc5c(c4)CCCC5)N=C3C)c2O)o1 [Example 54, 5-(2-Hydroxy-3-{N′-[3-methyl-5-oxo-1-(5,6,7,8-tetrahydro-naphthalen-2-yl)-1,5-dihydro-pyrazol-4-ylidene]-hydrazino}-phenyl)-furan-2-carboxylic acid methyl ester]
EC50 [1]: 133 nM

Compound: CC1=NN(c2ccc3c(c2)CC(C)(C)C3)C(=O)/C1=N\Nc1cccc(-c2cccc(C(=O)O)c2)c1O [Example 56, 3′-{N′-[1-(2,2-Dimethyl-indan-5-yl)-3-methyl-5-oxo-1,5-dihydro-pyrazol-4-ylidene]-hydrazino}-2′-hydroxy-biphenyl-3-carboxylic acid]
EC50 [1]: 60 nM

More lines, now with the values ahead:

EC50 [1]: 124 nM
Vd/F [2]: 0.77 ± 0.39 L/kg
CL/F [2]: 2.33 mL/min/kg
AUC [2]: 44800 ± 19400 ng·h/mL
half-life [2]: 4.01 ± 0.63 h
MRT [2]: 4.29 ± 0.8 h
Cmax [2]: 13000 ± 5960 ng/mL
Compound: CC1=NN(c2ccc3c(c2)CCC3)C(=O)/C1=N\Nc1cc(C)cc(-c2cccc(C(=O)O)c2)c1O [Example 29, 2′-Hydroxy-3′-[N′-(1-indan-5-yl-3-methyl-5-oxo-1,5-dihydro-pyrazol-4-ylidene)-hydrazino]-5′-methyl-biphenyl-3-carboxylic acid]

EC50 [1]: 56 nM
Compound: CC1=NN(c2ccc3c(c2)CCC3)C(=O)/C1=N\Nc1cc(C)cc(-c2ccc(C(=O)O)o2)c1O [Example 46, 5-{2-Hydroxy-3-[N′-(1-indan-5-yl-3-methyl-5-oxo-1,5-dihydro-pyrazol-4-ylidene)-hydrazino]-5-methyl-phenyl}-furan-2-carboxylic acid]

EC50 [1]: 126 nM
Compound: CC1=NN(c2ccc3c(c2)CCCC3)C(=O)/C1=N\Nc1cc(C)cc(-c2ccc(C(=O)O)o2)c1O [Example 50, 5-(2-Hydroxy-5-methyl-3-{N′-[3-methyl-5-oxo-1-(5,6,7,8-tetrahydro-naphthalen-2-yl)-1,5-dihydro-pyrazol-4-ylidene]-hydrazino}-phenyl)-furan-2-carboxylic acid]

EC50 [1]: 71 nM
Compound: COC(=O)c1ccc(-c2cccc(N/N=C3\C(=O)N(c4ccc5c(c4)CCC5)N=C3C)c2O)o1 [Example 55, 5-{2-hydroxy-3-[N′-(1-indan-5-yl-3-methyl-5-oxo-1,5-dihydro-pyrazol-4-ylidene)-hydrazino]-phenyl}-furan-2-carboxylic acid methyl ester]
